Test results from PubChem BioAssay AID1963841 (Molecular Pharmacology Branch, DTP, NCI, 2024).
“And” between values parts separate entries of the source, which are not always exact repeats. Equal entries are not always repeated.

Test system: 439559-082-T-J2-PDC spheroid viability
Assay: Anticancer human tumor 439559-082-T-J2-PDC patient-derived colon adenocarcinoma cell line growth inhibition [POLQ]
Details: spheroids with HUVEC and MSC; for viability, T/C: stronger effect = lower value
Summary of the method: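 Growth inhibition in 3D: complex spheroids (tumor PDC, HUVEC, MSC) treated with POLQ inhibitor combinations; where Cmax unknown, highest tested concentration 10 microM, except SN-38 at 1 microM.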

[1] = curve of first compound, second compound 0.0316 µM
[2] = curve of first compound, second compound 0.1 µM
[3] = curve of first compound, second compound 0.316 µM
[4] = curve of first compound, second compound 1 µM
[5] = curve of first compound, second compound 3.16 µM
[6] = curve of first compound, second compound 10 µM
[7] = second compound 0.0316 µM, first compound 0.0316 µM
[8] = second compound 0.0316 µM, first compound 0.1 µM
[9] = second compound 0.0316 µM, first compound 0.316 µM
[10] = second compound 0.0316 µM, first compound 1 µM
[11] = second compound 0.0316 µM, first compound 3.16 µM
[12] = second compound 0.0316 µM, first compound 10 µM
[13] = second compound 0.1 µM, first compound 0.0316 µM
[14] = second compound 0.1 µM, first compound 0.1 µM
[15] = second compound 0.1 µM, first compound 0.316 µM
[16] = second compound 0.1 µM, first compound 1 µM
[17] = second compound 0.1 µM, first compound 3.16 µM
[18] = second compound 0.1 µM, first compound 10 µM
[19] = second compound 0.316 µM, first compound 0.0316 µM
[20] = second compound 0.316 µM, first compound 0.1 µM
[21] = second compound 0.316 µM, first compound 0.316 µM
[22] = second compound 0.316 µM, first compound 1 µM
[23] = second compound 0.316 µM, first compound 3.16 µM
[24] = second compound 0.316 µM, first compound 10 µM
[25] = second compound 1 µM, first compound 0.0316 µM
[26] = second compound 1 µM, first compound 0.1 µM
[27] = second compound 1 µM, first compound 0.316 µM
[28] = second compound 1 µM, first compound 1 µM
[29] = second compound 1 µM, first compound 3.16 µM
[30] = second compound 1 µM, first compound 10 µM
[31] = second compound 3.16 µM, first compound 0.0316 µM
[32] = second compound 3.16 µM, first compound 0.1 µM
[33] = second compound 3.16 µM, first compound 0.316 µM
[34] = second compound 3.16 µM, first compound 1 µM
[35] = second compound 3.16 µM, first compound 3.16 µM
[36] = second compound 3.16 µM, first compound 10 µM
[37] = second compound 10 µM, first compound 0.0316 µM
[38] = second compound 10 µM, first compound 0.1 µM
[39] = second compound 10 µM, first compound 0.316 µM
[40] = second compound 10 µM, first compound 1 µM
[41] = second compound 10 µM, first compound 3.16 µM
[42] = second compound 10 µM, first compound 10 µM
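Also: spheroids exposed to compounds for seven days before readout.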
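For viability, T/C in this document: 100% = DMSO vehicle control viability.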

## CC1COCCN1c1cc(-c2ccnn2C)c2ccnc(-c3ccn[nH]3)c2n1 (stereo not drawn) + COC1C(OC(N)=O)C(O)C(Oc2ccc3c(O)c(NC(=O)c4ccc(O)c(CC=C(C)C)c4)c(=O)oc3c2C)OC1(C)C
[1]
  IC50: 257 nM
[2]
  IC50: 299 nM
[3]
  IC50: 353 nM
[4]
  IC50: 274 nM
[5]
  IC50: 276 nM
[6]
  IC50: 298 nM
[7]
  viability, T/C: 85.6%
[8]
  viability, T/C: 66.5%
[9]
  viability, T/C: 44.7%
[10]
  viability, T/C: 42%
[11]
  viability, T/C: 23.3%
[12]
  viability, T/C: 37%
[13]
  viability, T/C: 82.8%
[14]
  viability, T/C: 75.4%
[15]
  viability, T/C: 47.4%
[16]
  viability, T/C: 41.3%
[17]
  viability, T/C: 27%
[18]
  viability, T/C: 38.9%
[19]
  viability, T/C: 92.5%
[20]
  viability, T/C: 77.4%
[21]
  viability, T/C: 49.5%
[22]
  viability, T/C: 43.1%
[23]
  viability, T/C: 25.2%
[24]
  viability, T/C: 39.4%
[25]
  viability, T/C: 92.1%
[26]
  viability, T/C: 75.2%
[27]
  viability, T/C: 44.9%
[28]
  viability, T/C: 41.9%
[29]
  viability, T/C: 24.2%
[30]
  viability, T/C: 39.7%
[31]
  viability, T/C: 94.3%
[32]
  viability, T/C: 72.1%
[33]
  viability, T/C: 45.1%
[34]
  viability, T/C: 42.4%
[35]
  viability, T/C: 25.2%
[36]
  viability, T/C: 37.7%
[37]
  viability, T/C: 88%
[38]
  viability, T/C: 78.5%
[39]
  viability, T/C: 46.4%
[40]
  viability, T/C: 42.9%
[41]
  viability, T/C: 25.4%
[42]
  viability, T/C: 37.2%

## Cn1ncnc1[C@H]1c2n[nH]c(=O)c3cc(F)cc(c23)N[C@@H]1c1ccc(F)cc1 + COC1C(OC(N)=O)C(O)C(Oc2ccc3c(O)c(NC(=O)c4ccc(O)c(CC=C(C)C)c4)c(=O)oc3c2C)OC1(C)C
[1]
  IC50: > 100 nM
[2]
  IC50: > 100 nM
[3]
  IC50: > 100 nM
[4]
  IC50: > 100 nM
[5]
  IC50: > 100 nM
[6]
  IC50: > 100 nM
Second compound 0.0316 µM, first compound 0.000316 µM
  viability, T/C: 110%
Second compound 0.0316 µM, first compound 0.001 µM
  viability, T/C: 95.8%
Second compound 0.0316 µM, first compound 0.00316 µM
  viability, T/C: 102%
Second compound 0.0316 µM, first compound 0.01 µM
  viability, T/C: 99.8%
[7]
  viability, T/C: 99%
[8]
  viability, T/C: 95.4%
Second compound 0.1 µM, first compound 0.000316 µM
  viability, T/C: 110%
Second compound 0.1 µM, first compound 0.001 µM
  viability, T/C: 108%
Second compound 0.1 µM, first compound 0.00316 µM
  viability, T/C: 109%
Second compound 0.1 µM, first compound 0.01 µM
  viability, T/C: 101%
[13]
  viability, T/C: 99.4%
[14]
  viability, T/C: 91.1%
Second compound 0.316 µM, first compound 0.000316 µM
  viability, T/C: 104%
Second compound 0.316 µM, first compound 0.001 µM
  viability, T/C: 102%
Second compound 0.316 µM, first compound 0.00316 µM
  viability, T/C: 103%
Second compound 0.316 µM, first compound 0.01 µM
  viability, T/C: 102%
[19]
  viability, T/C: 94.1%
[20]
  viability, T/C: 91.1%
Second compound 1 µM, first compound 0.000316 µM
  viability, T/C: 108%
Second compound 1 µM, first compound 0.001 µM
  viability, T/C: 97.1%
Second compound 1 µM, first compound 0.00316 µM
  viability, T/C: 103%
Second compound 1 µM, first compound 0.01 µM
  viability, T/C: 94.2%
[25]
  viability, T/C: 99.1%
[26]
  viability, T/C: 99%
Second compound 3.16 µM, first compound 0.000316 µM
  viability, T/C: 101%
Second compound 3.16 µM, first compound 0.001 µM
  viability, T/C: 99.6%
Second compound 3.16 µM, first compound 0.00316 µM
  viability, T/C: 102%
Second compound 3.16 µM, first compound 0.01 µM
  viability, T/C: 102%
[31]
  viability, T/C: 96.5%
[32]
  viability, T/C: 93.5%
Second compound 10 µM, first compound 0.000316 µM
  viability, T/C: 106%
Second compound 10 µM, first compound 0.001 µM
  viability, T/C: 93.3%
Second compound 10 µM, first compound 0.00316 µM
  viability, T/C: 108%
Second compound 10 µM, first compound 0.01 µM
  viability, T/C: 96%
[37]
  viability, T/C: 104%
[38]
  viability, T/C: 91%

## COc1cc2cc(C(=O)CCC(=O)O)sc2cc1OC + COC1C(OC(N)=O)C(O)C(Oc2ccc3c(O)c(NC(=O)c4ccc(O)c(CC=C(C)C)c4)c(=O)oc3c2C)OC1(C)C
[1]
  IC50: > 10000 nM
[2]
  IC50: > 10000 nM
[3]
  IC50: > 10000 nM
[4]
  IC50: > 10000 nM
[5]
  IC50: > 10000 nM
[6]
  IC50: > 10000 nM
[7]
  viability, T/C: 94%
[8]
  viability, T/C: 96.2%
[9]
  viability, T/C: 90.1%
[10]
  viability, T/C: 92.3%
[11]
  viability, T/C: 100%
[12]
  viability, T/C: 95.2%
[13]
  viability, T/C: 94.1%
[14]
  viability, T/C: 103%
[15]
  viability, T/C: 103%
[16]
  viability, T/C: 95.7%
[17]
  viability, T/C: 111%
[18]
  viability, T/C: 98.1%
[19]
  viability, T/C: 98.6%
[20]
  viability, T/C: 99.1%
[21]
  viability, T/C: 96.2%
[22]
  viability, T/C: 97.8%
[23]
  viability, T/C: 97.1%
[24]
  viability, T/C: 93.2%
[25]
  viability, T/C: 98.1%
[26]
  viability, T/C: 99.3%
[27]
  viability, T/C: 98.8%
[28]
  viability, T/C: 94.7%
[29]
  viability, T/C: 96.1%
[30]
  viability, T/C: 91.3%
[31]
  viability, T/C: 99.1%
[32]
  viability, T/C: 99.5%
[33]
  viability, T/C: 84.7%
[34]
  viability, T/C: 95.6%
[35]
  viability, T/C: 98%
[36]
  viability, T/C: 89.5%
[37]
  viability, T/C: 99%
[38]
  viability, T/C: 96.9%
[39]
  viability, T/C: 97.9%
[40]
  viability, T/C: 95.9%
[41]
  viability, T/C: 111%
[42]
  viability, T/C: 89.6%

## CCc1cc2c(N3CCc4c(cc(Cn5ccnc5)cc4-c4cn(C)nc4C(F)(F)F)C3=O)cc(C)nc2c(OC)n1
Compound 0.0316 µM
  viability, T/C: 105% and 93.7% and 95.3%
Compound 0.1 µM
  viability, T/C: 94.8% and 96.5% and 90.4%
Compound 0.316 µM
  viability, T/C: 94.4% and 95.2% and 87.4%
Compound 1 µM
  viability, T/C: 103% and 91.7% and 94.3%
Compound 3.16 µM
  viability, T/C: 99.1% and 101% and 92.2%
Compound 10 µM
  viability, T/C: 94.1% and 90.4% and 87.9%
Curve of compound
  IC50: > 10000 nM
